For assay [1], the target named is T1, Prostaglandin G/H synthase 2 (Homo sapiens, UniProt P35354).
T1 sequence (P35354 whole entry): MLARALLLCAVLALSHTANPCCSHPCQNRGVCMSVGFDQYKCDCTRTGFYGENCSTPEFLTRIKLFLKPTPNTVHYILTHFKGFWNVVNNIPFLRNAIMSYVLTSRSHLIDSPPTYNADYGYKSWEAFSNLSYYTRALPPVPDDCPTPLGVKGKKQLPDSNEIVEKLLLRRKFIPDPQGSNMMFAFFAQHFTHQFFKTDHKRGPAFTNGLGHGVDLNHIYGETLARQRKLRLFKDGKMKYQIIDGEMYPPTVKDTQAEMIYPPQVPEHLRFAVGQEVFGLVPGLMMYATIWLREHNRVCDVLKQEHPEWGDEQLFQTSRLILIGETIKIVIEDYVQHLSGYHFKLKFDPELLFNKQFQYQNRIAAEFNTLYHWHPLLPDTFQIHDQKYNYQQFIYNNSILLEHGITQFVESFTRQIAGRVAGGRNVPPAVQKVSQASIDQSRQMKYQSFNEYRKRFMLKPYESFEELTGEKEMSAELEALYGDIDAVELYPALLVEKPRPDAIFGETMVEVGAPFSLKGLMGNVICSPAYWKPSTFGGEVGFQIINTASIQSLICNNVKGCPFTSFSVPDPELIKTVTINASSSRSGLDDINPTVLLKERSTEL
Put plainly: Inhibition of COX-2 (unknown origin).

The target in assay [2] is COX-1/COX-2 (Homo sapiens) (UniProt P35354+P23219). The assay is described as follows: Selectivity index, ratio of IC50 for COX-2 (unknown origin) to COX-1 (unknown origin).
Assay [3] has as its target T1, Prostaglandin G/H synthase 2.
Assay [4] concerns the target T2, Prostaglandin G/H synthase 1 (Ovis aries, UniProt P05979).
T2 sequence (P05979 whole entry): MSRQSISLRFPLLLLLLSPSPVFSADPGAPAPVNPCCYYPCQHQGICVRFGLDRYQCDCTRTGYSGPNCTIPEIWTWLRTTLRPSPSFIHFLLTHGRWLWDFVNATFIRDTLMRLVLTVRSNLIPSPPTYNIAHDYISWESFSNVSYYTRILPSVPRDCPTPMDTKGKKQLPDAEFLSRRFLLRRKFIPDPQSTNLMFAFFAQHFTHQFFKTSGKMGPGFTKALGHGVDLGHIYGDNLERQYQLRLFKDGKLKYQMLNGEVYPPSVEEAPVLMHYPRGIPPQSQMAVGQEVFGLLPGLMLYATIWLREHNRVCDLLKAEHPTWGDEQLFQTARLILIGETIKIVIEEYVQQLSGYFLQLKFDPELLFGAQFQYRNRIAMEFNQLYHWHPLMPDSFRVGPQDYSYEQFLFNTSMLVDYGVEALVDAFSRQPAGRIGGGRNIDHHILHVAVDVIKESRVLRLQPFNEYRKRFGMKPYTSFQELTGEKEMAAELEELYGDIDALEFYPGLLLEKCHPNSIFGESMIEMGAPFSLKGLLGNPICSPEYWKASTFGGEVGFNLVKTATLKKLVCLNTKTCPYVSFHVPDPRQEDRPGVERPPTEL
The assay is described as follows: Inhibition of ovine COX-1 preincubated for 5 mins followed by addition of arachidonic acid as substrate measured after 2 mins by fluorescence analysis.

The nature of assay [5]: Selectivity index,ratio of IC50 for ovine COX-1 to recombinant human COX-2.

Molecules are shown by their SMILES.

Sequence of COX-1/COX-2 (Homo sapiens) (P23219 whole entry, looked up, one chain of several): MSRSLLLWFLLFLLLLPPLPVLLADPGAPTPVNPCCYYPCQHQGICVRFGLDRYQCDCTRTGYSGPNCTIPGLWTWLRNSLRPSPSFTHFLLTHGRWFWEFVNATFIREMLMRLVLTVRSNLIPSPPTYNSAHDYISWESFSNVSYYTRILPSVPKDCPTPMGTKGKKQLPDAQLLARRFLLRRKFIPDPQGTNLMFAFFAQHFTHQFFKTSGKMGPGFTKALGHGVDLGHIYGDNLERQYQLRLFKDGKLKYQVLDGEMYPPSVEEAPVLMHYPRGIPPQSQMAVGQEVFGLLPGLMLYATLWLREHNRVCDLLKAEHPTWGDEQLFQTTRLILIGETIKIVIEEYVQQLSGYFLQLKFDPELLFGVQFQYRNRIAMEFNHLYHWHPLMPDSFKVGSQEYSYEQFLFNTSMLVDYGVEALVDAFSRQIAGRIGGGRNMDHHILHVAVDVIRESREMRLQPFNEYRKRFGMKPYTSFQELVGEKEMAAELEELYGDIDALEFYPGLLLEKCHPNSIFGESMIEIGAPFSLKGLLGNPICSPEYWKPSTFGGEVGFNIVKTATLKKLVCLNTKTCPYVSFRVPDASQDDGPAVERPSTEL

By IC50 is commonly meant the concentration at which inhibition is half-maximal. `CS(=O)(=O)c1ccc(-n2nc(C(F)(F)F)cc2-c2ccc(I)cc2)cc1` gave an IC50 in assay [1] of 5.2 µM.
In assay [1], `NS(=O)(=O)c1ccc(-n2nc(C(F)(F)F)cc2-c2ccc(I)cc2)cc1` gave an IC50 of 8.2 µM. The Ratio IC50 in assay [2] stood at 10.
As for `CS(=O)(=O)c1ccc(-c2cc(C(F)(F)F)nc(OCc3ccc(I)cc3)n2)cc1`, the IC50 was 2.5 µM in assay [3] and more than 100 µM in assay [4]. For the same compound, in assay [5], the Ratio IC50 is more than 40.
For `Cc1ccc(Nc2c(F)cccc2I)c(CC(=O)O)c1`, inhibition in assay [1] was half-maximal at 2.5 µM (IC50). The Ratio IC50 in assay [2] is 10.
Regarding `CS(=O)(=O)c1ccc(-c2cc(C(F)(F)F)nc(NCc3ccc(I)cc3)n2)cc1`, the IC50 was 0.85 µM in assay [3] and more than 100 µM in assay [4]. Besides, the Ratio IC50 in assay [5] is more than 100.
With `CS(=O)(=O)c1ccc(-c2cc(C(F)(F)F)nc(NCc3ccc(F)cc3)n2)cc1`, in assay [4], the IC50 was more than 100 µM.
`Cc1ccc(Nc2c(F)cccc2Cl)c(CC(=O)O)c1` [LUMIRACOXIB] returned an IC50 in assay [1] of 0.06 µM.
With `NS(=O)(=O)c1ccc(-c2cc(C(F)(F)F)nc(NCc3ccc(I)cc3)n2)cc1`, the IC50 in assay [3] was 13 µM; in assay [4], more than 100 µM. In addition, the Ratio IC50 in assay [5] is more than 7.5.

For the origin of these results see ChEMBL document CHEMBL3774383, “Design and synthesis of [(125)I]Pyricoxib: A novel (125)I-labeled cyclooxygenase-2 (COX-2) inhibitors” (Bioorg Med Chem Lett, 2016).
